Data on one compound can be found in paper PMC4076215, “Nickel(II) Complex of Polyhydroxybenzaldehyde N4-Thiosemicarbazone Exhibits Anti-Inflammatory Activity by Inhibiting NF-κB Transactivation” (PLoS ONE, 2014).

The structures appear in SMILES notation. “Also recorded” adds a separate entry of the source.

The assay concerns carrageenan-induced paw edema. The assay is described as follows: Carrageenan-induced paw edema mouse model. The note with it: for Paw size: 1 h after carrageenan, control 7.3±0.8 mm. It counts as in vivo, C57BL/6 mice. Here is the method: Male C57BL/6 mice at age 8–12 weeks old were from Jackson Laboratories, USA. Mice were administrated intraperitoneally (i.p.) with two different doses of complex 5 (2.5 mg/kg and 5 mg/kg). Negative control groups were i.p. injected with 200 µl of vehicle (50% v/v ethanol). A standard drug 2 mg/kg dexamethasone (Sigma) was included in the study. After 1 h, paw edema was induced by injecting 50 µl of 1% carrageenan (Sigma) through the plantar tissue at the right hind paw of each mouse. The thickness of right paw of each mouse was measured at 1, 3 and 5 h after carrageenan was administered. Four animals per group were tested (n = 4). Quantification of right hind paw thickness were analyzed for statistical significance using Student's t-test. Animals were housed in individually ventilated cages in specific pathogen free facility, Animal Experimental Unit, University of Malaya. All efforts were made to minimize animal suffering and the number of animals used. At the end of the experiment, mice were euthanized by CO2 asphyxiation. Animal work was approved by the Faculty of Medicine Animal Care and Use Committee (FOMIACUC) at University of Malaya and reported according to ARRIVE guidelines.
To test the in vivo inhibitory effect of complex 5 on inflammation, we administrated two doses of complex 5 (2.5 mg/kg and 5.0 mg/kg) into C57BL/6 wild type mice through i.p. injection. For a positive control, we performed i.p. injection of 2.0 mg/kg dexamethasone into the mice. After 1 h, paw edema in the mice was induced by injecting 1% carrageenan to the right hind paw. The paw sizes were measured at 1, 3 and 5 h after edema induction. The edema formation at the mice paw was due to inflammatory response causing the accumulation of histamine, serotonin, prostaglandin and other secreted inflammatory mediators.
Male C57BL/6 mice at age of 8-12 weeks old were non-injected or injected i.p. with 2.5 mg/kg or 5.0 mg/kg complex 5, whereas for positive controls, mice were injected i.p. with 2.0 mg/kg dexamethasone. After 1 h, acute inflammation was induced in the right hind paw of each mice by injecting 50 µl of carrageenan. The size of the paw were measured after (A) 1 h or, (B) 1, 3 and 5 h post carrageenan injection. Shown were mean ±SD (n = 4). Statistical analysis was performed with Student's t-test.
A general note: In the carrageenan paw model, swelling and tenderness develop within hours.

`NC1=[S+][Ni-2]2([P+](c3ccccc3)(c3ccccc3)c3ccccc3)[O]c3c(O)cccc3C=[N+]2N1.[Cl-]` [complex 5, {2-[(2-Carbamothiolylhydrazin-1-ylidene-[kappa]2N1,S)methyl]-6-hydroxyphenolato-[kappa]O1}(triphenylphosphine-[kappa]P)nickel(II) chloride] yielded a Paw size (2.5 mg/kg i.p.) of 5.8±0.4 mm. In addition, under “5.0 mg/kg i.p.”, the Paw edema formation result is listed as “obvious reduction; also recorded: effectively reduced” and the Paw size is reported as 5.0±0.2 mm. Besides, the “Paw edema compared to untreated mice” value (3 and 5 h post carrageenan) was “further reduced”.
